Measurements published in patent US10287253B2, “Substituted pyrimidines containing acidic groups as TLR7 modulators” (Apros Therapeutics, Inc., priority 2016, dated 2019).

Molecular target: human TLR7 (hTLR7) (Homo sapiens (Human), UniProt Q9NYK1)
Sequence (Q9NYK1 27-1049): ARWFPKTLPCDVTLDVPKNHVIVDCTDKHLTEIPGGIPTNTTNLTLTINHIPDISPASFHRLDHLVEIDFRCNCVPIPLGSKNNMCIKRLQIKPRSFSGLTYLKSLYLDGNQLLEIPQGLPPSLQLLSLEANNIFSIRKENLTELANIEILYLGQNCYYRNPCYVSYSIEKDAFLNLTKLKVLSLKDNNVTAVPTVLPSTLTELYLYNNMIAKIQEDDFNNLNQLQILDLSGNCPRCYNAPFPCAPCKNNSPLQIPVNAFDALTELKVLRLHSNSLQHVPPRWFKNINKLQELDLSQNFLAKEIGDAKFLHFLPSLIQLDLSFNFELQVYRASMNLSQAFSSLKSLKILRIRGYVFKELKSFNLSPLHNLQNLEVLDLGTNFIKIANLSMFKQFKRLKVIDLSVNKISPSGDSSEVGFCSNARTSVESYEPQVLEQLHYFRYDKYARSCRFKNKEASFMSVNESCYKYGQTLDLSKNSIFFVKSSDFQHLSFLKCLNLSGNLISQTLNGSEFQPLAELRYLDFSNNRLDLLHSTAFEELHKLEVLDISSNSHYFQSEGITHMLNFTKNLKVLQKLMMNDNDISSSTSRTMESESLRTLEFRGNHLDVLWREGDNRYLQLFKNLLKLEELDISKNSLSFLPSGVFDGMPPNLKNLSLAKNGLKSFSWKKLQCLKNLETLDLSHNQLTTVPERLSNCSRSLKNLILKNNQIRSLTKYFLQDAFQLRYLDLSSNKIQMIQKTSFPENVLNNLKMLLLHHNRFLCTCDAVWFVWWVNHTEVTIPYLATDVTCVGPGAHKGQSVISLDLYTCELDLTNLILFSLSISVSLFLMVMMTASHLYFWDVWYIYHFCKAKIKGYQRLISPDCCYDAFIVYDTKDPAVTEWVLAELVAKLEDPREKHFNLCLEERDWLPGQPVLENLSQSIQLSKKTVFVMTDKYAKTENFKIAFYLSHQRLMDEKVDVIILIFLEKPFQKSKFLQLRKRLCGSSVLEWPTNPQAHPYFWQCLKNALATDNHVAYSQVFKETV
Experiment: HEK TLR7 assay (HEK-Blue hTLR7 cells, NF-kB/AP-1 SEAP reporter)
Type: cell-based
Conditions: HEK-Blue hTLR7 cells, 16 h incubation, SEAP read at 620-655 nm
Description: HEK-Blue™ TLR7 cells were purchased from Invivogen (San Diego, Calif.). The following description was taken from the product information sheet.
“HEK-Blue™ hTLR7 cells are designed for studying the stimulation of human TLR7 (hTLR7) by monitoring the activation of NF-kB. HEK-Blue™ hTLR7 cells were obtained by co-transfection of the hTLR7 gene and an optimized secreted embryonic alkaline phosphatase (SEAP) reporter gene into HEK293 cells. The SEAP reporter gene is placed under the control of the IFN-b minimal promoter fused to five NF-kB and AP-1-binding sites. Stimulation with a TLR7 ligand activates NF-kB and AP-1 which induce the production of SEAP, which is detected by the HEK-Blue™ Detection cell culture medium.”
A typical assay protocol involved the following steps: • 1. Cells were cultured according to the product information sheet. • 2. 10 mM compound stock in DMSO were first diluted to 3 mM and then 3-fold serially diluted using DMSO to afford a 10-pt dilution. • 3. 3 μl of the diluted DMSO were added to 57 μl HEK-Blue™ Detection media for a further 20-fold dilution. • 4. 10 μl of the diluted compound in assay media were added into 40 μl cell culture (in HEK-Blue™ Detection media) in 384-well plate. Final cell concentration=8,000 cells per well. • 5. The plates were incubated at 37° C. in 5% CO2 for 16 h. SEAP was determined using a spectrophotometer at 620-655 nm.
For CCCC[C@@H](CCSC)Nc1nc(N)nc(CCC(=O)O)c1Cc1ccccc1OC [Compound 38, (S)-3-(2-amino-5-(2-methoxybenzyl)-6-((1-(methylthio)heptan-3-yl)amino)pyrimidin-4-yl)propanoic acid], the EC50 was under 100 nM.
With CCCCNc1nc(N)nc(C)c1Cc1cc(C(=O)NCCCP(=O)(O)O)ccc1OC [Compound 30, (3-(3-((2-amino-4-(butylamino)-6-methylpyrimidin-5-yl)methyl)-4-methoxybenzamido)propyl)phosphonic acid] the EC50 was 100 to 1000 nM.
In the case of CCCC[C@@H](CCO)Nc1nc(N)nc(C)c1Cc1cc(Cc2nn[nH]n2)ccc1OC [Compound 18, (S)-3-((5-(5-((2H-tetrazol-5-yl)methyl)-2-methoxybenzyl)-2-amino-6-methylpyrimidin-4-yl)amino)heptan-1-ol], the EC50 is reported as under 100 nM.
CCCCNc1nc(N)nc(C)c1Sc1cc(Cc2nn[nH]n2)ccc1OC [Compound 31, 5-((5-((2H-tetrazol-5-yl)methyl)-2-methoxyphenyl)thio)-N^4-butyl-6-methylpyrimidine-2,4-diamine] gave an EC50 of 1000 to 10000 nM.
With CCCCCNc1nc(N)nc(C)c1Cc1cc(Cc2nn[nH]n2)ccc1OC [Compound 26, 5-(5-((2H-tetrazol-5-yl)methyl)-2-methoxybenzyl)-6-methyl-M-pentylpyrimidine-2,4-diamine] the EC50 was 100 to 1000 nM.
CCCCNc1nc(N)nc(CCc2nn[nH]n2)c1Cc1ccccc1OC [Compound 37, 6-(2-(2H-tetrazol-5-yl)ethyl)-N^4-butyl-5-(2-methoxybenzyl)pyrimidine-2,4-diamine] gave an EC50 of 100 to 1000 nM.
CCCC[C@H](CC(=O)O)Nc1nc(N)nc(C)c1Cc1cc(Cc2nn[nH]n2)ccc1OC [Compound 20C, (R)-3-((5-(5-((2H-tetrazol-5-yl)methyl)-2-methoxybenzyl)-2-amino-6-methylpyrimidin-4-yl)amino)heptanoic acid] gave an EC50 of 1000 to 10000 nM.
For CCCCNc1nc(N)nc(C)c1Cc1cc(CP(=O)(O)O)ccc1OC [Compound 7, (3-((2-amino-4-(butylamino)-6-methylpyrimidin-5-yl)methyl)-4-methoxybenzyl)phosphonic acid], the EC50 was 1000 to 10000 nM.
CCCCNc1nc(N)nc(CCCO)c1Cc1ccccc1OC [Compound 47, 3-(2-amino-6-(butylamino)-5-(2-methoxybenzyl)pyrimidin-4-yl)propan-1-ol] showed an EC50 of 100 to 1000 nM.
In the case of CCCC[C@@H](CCOC)Nc1nc(N)nc(CCC(=O)O)c1Cc1cc(Cc2nn[nH]n2)ccc1OC [Compound 49, (S)-3-(5-(5-((2H-tetrazol-5-yl)methyl)-2-methoxybenzyl)-2-amino-6-((1-methoxyheptan-3-yl)amino)pyrimidin-4-yl)propanoic acid], the EC50 is reported as 100 to 1000 nM.
Compound CCCCNc1nc(N)nc(C)c1Cc1ccc(Cc2nn[nH]n2)cc1OC [Compound 2, 5-(4-((2H-tetrazol-5-yl)methyl)-2-methoxybenzyl)-N4-butyl-6-methylpyrimidine-2,4-diamine] has an EC50 of 1000 to 10000 nM.
For CCC[C@@H](CO)Nc1nc(N)nc(C)c1Cc1cc(Cc2nn[nH]n2)ccc1OC [Compound 8, (S)-2-((5-(5-((2H-tetrazol-5-yl)methyl)-2-methoxybenzyl)-2-amino-6-methylpyrimidin-4-yl)amino)pentan-1-ol], the EC50 was 100 to 1000 nM.
In the case of CCCC[C@@H](CCO)Nc1nc(N)nc(CCC(=O)O)c1Cc1ccccc1OC [Compound 27, (S)-3-(2-amino-6-((1-hydroxyheptan-3-yl)amino)-5-(2-methoxybenzyl)-pyrimidin-4-yl)propanoic acid], the EC50 is reported as 100 to 1000 nM.
CCCCNc1nc(N)nc(C)c1Cc1cc(CCC(=O)O)ccc1OC [Compound 4, 3-(3-((2-amino-4-(butylamino)-6-methylpyrimidin-5-yl)methyl)-4-methoxyphenyl)propanoic acid] gave an EC50 of 1000 to 10000 nM.
Compound CCCCNc1nc(N)nc(C)c1Cc1cc(Cc2nnn(CC(=O)O)n2)ccc1OC [Compound 5, 2-(5-(3-((2-amino-4-(butylamino)-6-methylpyrimidin-5-yl)methyl)-4-methoxybenzyl)-2H-tetrazol-2-yl)acetic acid] has an EC50 of 1000 to 10000 nM.
Compound CCCCNc1nc(N)nc(C)c1Cc1cc(C(=O)NCCS(=O)(=O)O)ccc1OC [Compound 16, 2-(3-((2-amino-4-(butylamino)-6-methylpyrimidin-5-yl)methyl)-4-methoxybenzamido)ethane-1-sulfonic acid] has an EC50 of 100 to 1000 nM.
Compound CCCC[C@@H](CCc1nn[nH]n1)Nc1nc(N)nc(C)c1Cc1ccccc1OC [Compound 36, (S)—N^4-(1-(2H-tetrazol-5-yl)heptan-3-yl)-S-(2-methoxybenzyl)-6-methylpyrimidine-2,4-diamine] has an EC50 of 100 to 1000 nM.
Compound CCCC[C@@H](CCS(C)(=O)=O)Nc1nc(N)nc(C)c1Cc1cc(CC(=O)O)ccc1OC [Compound 51, (S)-2-(3-((2-amino-4-methyl-6-((1-(methylsulfonyl)heptan-3-yl)amino)pyrimidin-5-yl)methyl)-4-methoxyphenyl)acetic acid] has an EC50 of 100 to 1000 nM.
In the case of CCCCNc1nc(N)nc(CCC(=O)O)c1CCc1ccc(OC)cc1 [Compound 19, 3-(2-amino-6-(butylamino)-5-(4-methoxyphenethyl)pyrimidin-4-yl)pro-panoic acid], the EC50 is reported as 1000 to 10000 nM.
In the case of CCCC[C@@H](CCS(C)(=O)=O)Nc1nc(N)nc(CCC(=O)O)c1Cc1cc(CC(=O)O)ccc1OC [Compound 50, (S)-3-(2-amino-5-(5-(carboxymethyl)-2-methoxybenzyl)-6-((1-(methylsulfonyl)heptan-3-yl)amino)pyrimidin-4-yl)propanoic acid], the EC50 is reported as 100 to 1000 nM.
Work on CCCCNc1nc(N)nc(C)c1Cc1ccc(CCC(=O)O)cc1OC [Compound 1, 3-(4-((2-amino-4-(butylamino)-6-methylpyrimidin-5-yl)methyl)-3-methoxyphenyl)propanoic acid] yielded an EC50 of 1000 to 10000 nM.
CCCCNc1nc(N)nc(C)c1Cc1cc(C2(C(=O)O)CC2)ccc1OC [Compound 14, 1-(3-((2-amino-4-(butylamino)-6-methylpyrimidin-5-yl)methyl)-4-methoxyphenyl)cyclopropane-1-carboxylic acid] showed an EC50 of 1000 to 10000 nM.
CCCCNc1nc(N)nc(C)c1Cc1cc(Cc2nnnn2CC(=O)O)ccc1OC [Compound 6, 2-(5-(3-((2-amino-4-(butylamino)-6-methylpyrimidin-5-yl)methyl)-4-methoxybenzyl)-1H-tetrazol-1-yl)acetic acid] gave an EC50 of 1000 to 10000 nM.
With CCCC[C@@H](CCSC)Nc1nc(N)nc(CCC(=O)O)c1Cc1cc(Cc2nn[nH]n2)ccc1OC [Compound 48, (S)-3-(5-(5-((2H-tetrazol-5-yl)methyl)-2-methoxybenzyl)-2-amino-6-((1-(methylthio)-heptan-3-yl)amino)pyrimidin-4-yl)propanoic acid] the EC50 was under 100 nM.
For CCCC(C)Nc1nc(N)nc(C)c1Cc1cc(Cc2nn[nH]n2)ccc1OC (centres unmarked) [Compound 39, 5-(5-((2H-tetrazol-5-yl)methyl)-2-methoxybenzyl)-6-methyl-N^4-(pentan-2-yl)pyrimidine-2,4-diamine], the EC50 was 100 to 1000 nM.
With CCCCNc1nc(N)nc(C)c1Cc1cc(C(=O)NCCCc2nn[nH]n2)ccc1OC [Compound 28, N-(3-(2H-tetrazol-5-yl)propyl)-3-((2-amino-4-(butylamino)-6-methyl-pyrimidin-5-yl)methyl)-4-methoxybenzamide] the EC50 was 1000 to 10000 nM.
Compound CCCCNc1nc(N)nc(C)c1Cc1cc(C(=O)NCCCC(=O)O)ccc1OC [Compound 25, 4-(3-((2-amino-4-(butylamino)-6-methylpyrimidin-5-yl)methyl)-4-methoxybenzamido)butanoic acid] has an EC50 of 100 to 1000 nM.
For CCCC[C@@H](CCO)Nc1nc(N)nc(CCC(=O)O)c1OC [Compound 21, (S)-3-(2-amino-6-((1-hydroxyheptan-3-yl)amino)-5-methoxypyrimidin-4-yl)propanoic acid], the EC50 was 1000 to 10000 nM.

Tested on: not listed separately
Experiment: Pharmacokinetics experiments: mouse liver-to-serum concentration (L:S)
Type: in vivo
Conditions: BALB/c mice, 10 mg/kg p.o., 5 hour post dose
Protocol: BALB/c mice were dosed p.o. with 10 mg/kg compound formulated in 0.5% carboxy methycellulose+0.5% Tween-80 suspension. Mice were bled retro-orbitally at different time points post dose. Blood was processed into serum by centrifugation followed by protein precipitation, reverse-phase gradient elution and MRM detection via ESI+mass spectrometry to determine compound concentration. Animals were sacrificed after the final blood collection (5 hour), liver removed and flash frozen in liquid nitrogen for tissue PK analyses. The liver-to-serum concentration (L:S) at 5 hour post dose is one parameter for identifying compounds with potential enrichment in liver.
Mouse liver-to-serum concentration (L:S) table below provides results.
For CCCCNc1nc(N)nc(C)c1Cc1cc(C(=O)NCCCP(=O)(O)O)ccc1OC [Compound 30, (3-(3-((2-amino-4-(butylamino)-6-methylpyrimidin-5-yl)methyl)-4-methoxybenzamido)propyl)phosphonic acid], the “L:S at 5 hr (liver-to-serum concentration)” value (from here on “L:S at 5 hr”) was “A (A = >100 represents high liver-enrichment)”.
With CCCC[C@@H](CCO)Nc1nc(N)nc(C)c1Cc1cc(Cc2nn[nH]n2)ccc1OC [Compound 18, (S)-3-((5-(5-((2H-tetrazol-5-yl)methyl)-2-methoxybenzyl)-2-amino-6-methylpyrimidin-4-yl)amino)heptan-1-ol] the “L:S at 5 hr” value was “A (A = >100 represents high liver-enrichment)”.
With CCCC[C@@H](CCSC)Nc1nc(N)nc(C)c1Cc1cc(Cc2nn[nH]n2)ccc1OC [Compound 22, (S)-5-(5-((2H-tetrazol-5-yl)methyl)-2-methoxybenzyl)-6-methyl-N^4-(1-(methylthio)heptan-3-yl)pyrimidine-2,4-diamine] the “L:S at 5 hr” value was “A (A = >100 represents high liver-enrichment)”.
With CCCC[C@@H](CCS(C)(=O)=O)Nc1nc(N)nc(C)c1Cc1cc(Cc2nn[nH]n2)ccc1OC [Compound 23, (S)-5-(5-((2H-tetrazol-5-yl)methyl)-2-methoxybenzyl)-6-methyl-N^4-(1-(methylsulfonyl)heptan-3-yl)pyrimidine-2,4-diamine] the “L:S at 5 hr” value was “A (A = >100 represents high liver-enrichment)”.
